Here are results for 5 compounds from patent US20140315786A1, “USE OF INTRACELLULAR ENZYMES FOR THE RELEASE OF COVALENTLY LINKED BIOACTIVES” (Catabasis Pharmaceuticals, Inc., priority 2011, published 2014).

Data set [1] deals with LTB4. As to the kind of experiment: LTB4 assay (HTRF) in differentiated HL-60 cells stimulated with A23187. The following applies: Homo sapiens, linked bioactive. It is filed as cell-based. How it is done:
The LTB4 assay was conducted using a commercial kit (CISBIO, Bedford, Mass.) in HL-60 cells. HL-60 cells were maintained in IMEM supplemented with 20% serum in 37° C. in 5% CO2. Media was changed 2 times a week and cells kept at a density of 2×10^5 to 1×10^6 cells/ml.
Before the experiment cell culture media was changed to 10% serum and HL-60 cells were differentiated for 3 days in 1.3% DMSO. On day 3 cells were concentrated 2 times in the DMSO containing media and 1 ml cell suspension/well plated in 24-well plates. BSA controls or CAT compounds prepared in 1% BSA from an ethanol or DMSO stock solution were added to the wells and the cell were incubated for 21 hours. Next day, cells were transferred to Eppendorf tubes centrifuged at 300×g and rinsed once in DPBS. Cells were re-suspended in 300 μl DPBS containing 2% FBS (assay buffer), and 80 μl/well was plated in 96-well plates (black sides, clear bottom). Some cells were pre-incubated with 10 μM NDGA, a LOX inhibitor. To initiated LTB4 secretion, cells were stimulated with the calcium ionophore A23187 (5 μM) for 15 min. […] LTB4 content in the supernatant was assessed by a homogeneous time resolved fluorescence (HTRF) LTB4 assay from CISBIO, in a 384-well plate format. […] Cell viability was determined in the 96-well plate by CellTiter-Glo (Promega, Madison, Wis.).
In general terms: TR-FRET usually uses a lanthanide donor and a delayed reading to cut background.

A short description of data set [2]: Rat liver lysate hydrolysis assay (FAAH and thiol reductase promoted cleavage). It is filed as in vitro ADME. The conditions noted are these: FIG. 7B; presence of inhibitor. The protocol: The rat liver lysate hydrolysis experiment was performed in Eppendorf tubes, by adding the necessary amount of water for the assay first. A 10× buffer solution with final concentrations of HEPES and EDTA of 50 mM and 1 mM respectively was prepared from 500 mM HEPES and 10 mM EDTA in water. Rat liver lysate was removed from −80° C. storage, thawed and centrifuged at 4000 g for 5 min. A volume of the supernatant was transferred to the Eppendorf tube yielding a final concentration in the assay of 3 mg/mL rat liver lysate. The tube was gently inverted to mix the components. The reactions are then place in a 37° C. incubator for 20 min allowing the reaction mixture to reach 37° C. before the reaction was initiated.
To initiate the hydrolysis reaction, the samples were removed from the incubator and the compounds of the invention were added, as a DMSO solution, prepared in a manner to allow for <1% final DMSO concentration and 5 μM final compound concentration. […]
This rat liver lysate hydrolysis assay was used to assess the hydrolysis of bis-fatty acid linked bioactives into individual components. As an illustrative example, the bis-fatty acid cystamine linked bioactive VI-7 was assessed in this rat liver lysate assay. […] The amount of cysteamine that was formed could be quantitated by LC-MS/MS by carrying out an initial derivatization with Ellman's reagent. […] 50 μl of the tissue lysate reaction mixture was transferred to a 1.5 mL eppendorf tube and derivatization of cysteamine was performed with 50 μl 10 mM Ellman's reagent (5,5′ dithio-bis(2-nitrobenzoic acid). Samples were incubated at room temperature for 10 minutes, vortex for 1 minute followed by protein precipitation by addition of 300 μl of acetonitrile containing IS and 0.2% butylated hydroxyanisole (BHA). Supernatant was transferred to a clean LC vial and 10 μl of the sample was injected on LC-MS/MS for the measurement of cysteamine. The concentration of cysteamine was measured by LC-MS/MS. […]

Data set [3] addresses T1, FAAH-2 (Homo sapiens, UniProt Q6GMR7).
T1 construct: expressed in transfected cells; host or cells: COS-7
T1 sequence (Q6GMR7 1-532): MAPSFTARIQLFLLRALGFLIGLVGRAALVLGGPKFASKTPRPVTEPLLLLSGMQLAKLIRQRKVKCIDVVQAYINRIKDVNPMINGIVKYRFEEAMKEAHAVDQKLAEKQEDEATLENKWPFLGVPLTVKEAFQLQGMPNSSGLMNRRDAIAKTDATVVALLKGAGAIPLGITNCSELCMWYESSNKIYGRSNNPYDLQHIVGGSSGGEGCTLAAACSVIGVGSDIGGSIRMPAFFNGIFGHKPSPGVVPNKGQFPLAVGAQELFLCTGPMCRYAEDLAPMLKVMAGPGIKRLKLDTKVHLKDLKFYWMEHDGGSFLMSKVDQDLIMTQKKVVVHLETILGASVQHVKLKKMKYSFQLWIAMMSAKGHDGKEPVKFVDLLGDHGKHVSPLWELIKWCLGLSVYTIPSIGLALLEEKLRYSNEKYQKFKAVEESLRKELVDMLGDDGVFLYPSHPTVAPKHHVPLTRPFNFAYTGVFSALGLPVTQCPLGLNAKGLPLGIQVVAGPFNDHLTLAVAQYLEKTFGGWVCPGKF
As to the kind of experiment: Hydrolysis in homogenate of COS-7 cells overexpressed with FAAH-2. The following applies: FIG. 9B; 5 μM inhibitor. It counts as biochemical. The protocol: (§1) Hydrolysis experiments using COS-7 cells overexpressed with either FAAH-1 or FAAH-2. […] The next day, cells were transfected, in duplicate, with 10 μg Vector control, flag-FAAH-1 or flag-FAAH-2 plasmids using Lipofectamine 2000 (Invitrogen) according to the manufacturer's protocol. 24 hours post transfection, cells were washed 1× in cold PBS, aspirated dry, and then scraped off the plate in the presence of 0.6 mL reaction buffer (50 mM HEPES, pH 9.0; 1 mM EDTA). Cells were then homogenated using a VWR VDI 12 Adaptable Homogenizer, on ice for 1 minute, and the sample was then clarified by centrifugation at 6,000 g for 5 minutes. The supernatant of this homogenated fraction was then used for FAAH hydrolysis assays. […] Gel densitometry was performed and the % FAAH extracted in each successive lysis conditions was determined according to standard procedures.
(§2) The following hydrolysis experiments were performed using COS-7 cells containing overexpressed FAAH-1 or FAAH-2. […] Briefly, the hydrolysis experiments were carried out in Eppendorf tubes using procedures similar to the one described above. […] At time=0, 1, and 3 h, the protein was precipitated with acetonitrile.

Data set [4] deals with T2, FAAH-1 (Homo sapiens, UniProt O00519).
T2 construct: expressed in transfected cells; host or cells: COS-7
T2 sequence (O00519 1-579): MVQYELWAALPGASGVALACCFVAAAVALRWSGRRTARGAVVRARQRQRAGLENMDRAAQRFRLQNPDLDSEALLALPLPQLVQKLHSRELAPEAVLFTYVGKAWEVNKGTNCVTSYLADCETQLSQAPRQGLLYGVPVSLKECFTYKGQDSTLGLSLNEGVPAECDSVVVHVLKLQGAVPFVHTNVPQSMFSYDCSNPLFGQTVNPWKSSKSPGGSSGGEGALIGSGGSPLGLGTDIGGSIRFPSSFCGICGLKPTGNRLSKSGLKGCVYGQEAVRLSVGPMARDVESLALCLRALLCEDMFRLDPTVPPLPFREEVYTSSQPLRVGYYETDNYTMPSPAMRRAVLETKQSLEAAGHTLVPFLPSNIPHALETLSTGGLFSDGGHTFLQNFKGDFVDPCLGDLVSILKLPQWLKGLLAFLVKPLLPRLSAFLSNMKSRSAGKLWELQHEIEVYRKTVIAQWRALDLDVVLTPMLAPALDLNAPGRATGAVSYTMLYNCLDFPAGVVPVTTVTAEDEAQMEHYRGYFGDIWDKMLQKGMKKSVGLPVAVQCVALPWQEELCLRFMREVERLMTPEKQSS
As to the kind of experiment: Hydrolysis in homogenate of COS-7 cells overexpressed with FAAH-1. It is filed as biochemical. The following applies: 5 μM inhibitor. How it is done: as §1, §2

Data set [5] deals with T3, human recombinant MAG-lipase (Homo sapiens, UniProt Q99685).
T3 construct: purchased Cayman 705192
T3 sequence (Q99685 1-303): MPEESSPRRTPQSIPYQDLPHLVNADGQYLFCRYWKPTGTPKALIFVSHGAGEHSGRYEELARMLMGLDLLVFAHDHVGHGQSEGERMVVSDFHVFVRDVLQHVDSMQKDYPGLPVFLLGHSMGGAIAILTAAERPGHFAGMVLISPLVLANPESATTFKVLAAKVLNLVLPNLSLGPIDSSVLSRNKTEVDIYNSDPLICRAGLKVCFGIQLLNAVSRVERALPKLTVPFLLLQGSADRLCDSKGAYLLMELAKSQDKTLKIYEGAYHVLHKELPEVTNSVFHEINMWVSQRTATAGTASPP
As to the kind of experiment: Hydrolysis with human recombinant monoacylglycerol lipase, with and without MAGL inhibitor. It counts as biochemical. The conditions noted are these: FIG. 8. How it is done:
Hydrolysis experiment involving Monoacylglycerol lipase (MAGL) with and without a MAGL inhibitor. A commercially available Monoacylglycerol (MAGL) kit from Cayman (Cat #705192) was used for the hydrolysis experiment. The hydrolysis was carried out in Eppendorf tubes by adding together 300 μL of a 10 mM Tris-HCl buffer (pH 7.2, 1 mM EDTA), 20 μL of DMSO, and 20 μL of the human recombinant MAG-lipase. […] The Eppendorf tubes were gently inverted to mix the components and then placed in a 37° C. incubator. A 25 μl, sample was withdrawn at each of the following time points: 0, 5, 10, 15, and 30 min. […] In a separate experiment, the hydrolysis was then repeated in the presence of a MAGL inhibitor (compound JZL184, supplied with the commercially available MAGL kit). Eppendorf tubes were charged with 300 μL of a 10 mM Tris-HCl buffer (pH 7.2, 1 mM EDTA), 20 μL of a […] solution of JZL184 in DMSO in order to make a 5 μM final concentration, and 20 μL of the human recombinant MAG-lipase. […] The Eppendorf tubes were gently inverted to mix the components and then placed in a 37° C. incubator.

Data set [6] deals with NFκB. As to the kind of experiment: NFκB-driven luciferase reporter assay in LPS-challenged RAW 264.7 macrophages. It is filed as cell-based. The conditions noted are these: Mus musculus, RAW264.7; RAW 264.7, LPS 200 ng/mL; linked bioactive; read-out: IC50 in an NFkB assay. How it is done:
RAW 264.7 cells transfected with an NFκB-driven luciferase reporter were plated in 96 well plates. Cells were treated with Vehicle (0.1% ethanol) or test compounds for 2 hours. As a positive control for inhibition of NFκB signaling, 6 wells were treated with […]. Cells were then challenged with 200 ng/mL LPS for 3 hours in the presence of test compounds. A subset of wells treated with vehicle remained unstimulated with LPS to determine the floor signal of the assay. NFκB driven luciferase activity was developed by addition of BriteLite luciferase kit (PERKIN ELMER®) and measured using a Victor V plate reader. NFκB activity (luciferase activity) for each treatment was normalized to Vehicle wells treated with LPS (% NFκB Response).
(In general: In a reporter assay the amount or activity of a reporter protein is the signal.)

Molecules are shown by their SMILES.

Regarding `CC/C=C\C/C=C\C/C=C\C/C=C\C/C=C\C/C=C\CCC(=O)NCCNC(=O)C(C)c1ccc(CC(C)C)cc1` (stereo not drawn) [VIIa-1, (4Z,7Z,10Z,13Z,16Z,19Z)-N-(2-(2-(4-isobutylphenyl)propanamido)ethyl)docosa-4,7,10,13,16,19-hexaenamide], the IC50 (commonly the midpoint of a concentration-inhibition curve) in data set [1] was found to be 2200 nM.

Turning to `CC/C=C\C/C=C\C/C=C\C/C=C\C/C=C\C/C=C\CCC(=O)N[C@@H](CCCCNC(=O)C(C)c1ccc(CC(C)C)cc1)C(=O)O` (stereo partly drawn) [VIIa-2, (2S)-2-((4Z,7Z,10Z,13Z,16Z,19Z)-docosa-4,7,10,13,16,19-hexaenamido)-6-(2-(4-isobutylphenyl)propanamido)hexanoic acid], the IC50 in data set [1] is 1600 nM.

Consider `O=C(Nc1cccnc1)N1CCC(Cc2cccc(Oc3ccc(C(F)(F)F)cn3)c2)CC1` [PF-3845], for which the “effect of FAAH inhibitor on formation of cysteamine from compound VI-7 in rat liver lysate” value in data set [2] is “essentially no increase in cysteamine”. Also, in data set [3], the “effect of inhibitor on hydrolysis of compound I-1, FAAH-2” value is given as “not as effective as URB597”. In data set [4] (FIG. 9A), the “effect of inhibitor on rate of hydrolysis of compound I-1, FAAH-1” value was “significantly reduced”. Moreover, in data set [4] (FIG. 9C), the “effect of inhibitor on rate of formation of DHA from compound I-1, FAAH-1” value is recorded as “significantly inhibited”.

Consider `O=C(Oc1ccc([N+](=O)[O-])cc1)N1CCC(C(O)(c2ccc3c(c2)OCO3)c2ccc3c(c2)OCO3)CC1` [JZL184, reference compound], for which the “effect of MAGL inhibitor on rate of hydrolysis of compound II-1” value in data set [5] (5 μM inhibitor) is given as “reduced significantly”.

On to `CC/C=C\C/C=C\C/C=C\C/C=C\C/C=C\C/C=C\CCC(=O)Nc1ccc(O)c(C(=O)O)c1` [II-1, 5-(4Z,7Z,10Z,13Z,16Z,19Z)-docosa-4,7,10,13,16,19-hexaenamido-2-hydroxybenzoic acid], for which the IC50 in data set [6] fell in the range of 40000 to 50000 nM. In data set [5] (5 μM final concentration, 37° C., 0-30 min, no inhibitor), the “hydrolysis using human recombinant MAG-lipase (remaining compound)” value is given as “time-dependent hydrolysis”.
